Data: ChEMBL document CHEMBL1128839, “Aminodiol HIV protease inhibitors. 2. 1,1-Dimethyl-2-hydroxyethyl carbamate derivatives with enhanced potency” (Bioorg Med Chem Lett, 1995)

Legend:
CCRF-CEM [1] = test: Cytotoxicity against CEM cells; format: functional, Homo sapiens
CCRF-CEM [2] = test: Compound was evaluated for its ability to inhibit the replication of HIV-1 virus by 50% in cell culture using XTT endpoint; format: functional; conditions: Homo sapiens, read-out: ED50 (the source's name)
[3] = molecular target: Human immunodeficiency virus type 1 protease (Human immunodeficiency virus 1, UniProt Q72874); test: Inhibition of HIV protease cleavage of V-S-Q-N-(b-naphthylalanine)-P-I-V
[4] = Half-life period by analytical HPLC at pH 7.2; format: ADME
CCRF-CEM [5] = test: Compound was evaluated for its ability to inhibit the replication of HIV-2 virus (strain CBL-20) by 50% in cell culture using XTT endpoint; format: functional; conditions: Homo sapiens, read-out: ED50 (the source's name)

Compound	Cytotoxicity (CCRF-CEM [1])	EC50 (CCRF-CEM [2])	IC50 [3]	half-life [4]	EC50 (CCRF-CEM [5])
C[C@@H](O)C(C)(C)OC(=O)N[C@@H](Cc1ccccc1)[C@H](O)CNC[C@@H](O)[C@H](Cc1ccccc1)NC(=O)OC(C)(C)C	>10 µM	320 nM	160 nM		
CC(C)(C)OC(=O)N[C@@H](Cc1ccccc1)[C@H](O)CNC[C@@H](O)[C@@H](N)Cc1ccccc1			> 10000 nM		
CC(C)(C)OC(=O)N[C@@H](Cc1ccccc1)[C@H](O)CNC[C@@H](O)[C@H](Cc1ccccc1)NC(=O)OC(C)(C)CN			> 10000 nM		
CC(C)(C)OC(=O)N[C@@H](Cc1ccccc1)[C@H](O)CNC[C@@H](O)[C@H](Cc1ccccc1)NC(=O)OC(C)(CO)CO	>10 µM		200 nM	18 h	
CC(C)(C)OC(=O)N[C@@H](Cc1ccccc1)[C@H](O)CNC[C@@H](O)[C@H](Cc1ccccc1)NC(=O)OCCO	>10 µM	280 nM	230 nM		
CC(C)(C)OC(=O)N[C@@H](Cc1ccccc1)[C@H](O)CNC[C@@H](O)[C@H](Cc1ccccc1)NC(=O)OC(C)(C)CO	>=10000 nM	38 nM	35 nM		103 nM
C[C@H](O)C(C)(C)OC(=O)N[C@@H](Cc1ccccc1)[C@H](O)CNC[C@@H](O)[C@H](Cc1ccccc1)NC(=O)OC(C)(C)C	>10 µM	35 nM	105 nM		
COCC(C)(C)OC(=O)N[C@@H](Cc1ccccc1)[C@H](O)CNC[C@@H](O)[C@H](Cc1ccccc1)NC(=O)OC(C)(C)C	>=10000 nM	1040 nM	420 nM		
CC(C)(C)OC(=O)N[C@@H](Cc1ccccc1)[C@H](O)CNC[C@@H](O)[C@H](Cc1ccccc1)NC(=O)OC(C)(C)CNC=O	>=10000 nM	610 nM	1500 nM		
CC(C)(C)OC(=O)N[C@@H](Cc1ccccc1)[C@H](O)CNC[C@@H](O)[C@H](Cc1ccccc1)NC(=O)OC(C)(C)CCCO	>=10000 nM	650 nM	1100 nM		
CC(C)(C)OC(=O)N[C@@H](Cc1ccccc1)[C@H](O)CNC[C@@H](O)[C@H](Cc1ccccc1)NC(=O)OC(C)(C)CCO	>=10000 nM	175 nM	200 nM		
CC(C)(CO)OC(=O)N[C@@H](Cc1ccccc1)[C@H](O)CNC[C@@H](O)[C@H](Cc1ccccc1)NC(=O)OC(C)(C)CO	>10 µM	843 nM	16 nM		
CC(C)(C)OC(=O)N[C@@H](Cc1ccccc1)[C@H](O)CNC[C@@H](O)[C@H](Cc1ccccc1)NC(=O)OC1(CO)CCC1	>10 µM	155 nM	100 nM		
CC(C)(C)OC(=O)N[C@@H](Cc1ccccc1)[C@H](O)CNC[C@@H](O)[C@H](Cc1ccccc1)NC(=O)OC(C)(C)C	>=10000 nM	80 nM			
